Here are results for 19 molecules from US12624018B1, “Inhibitors of RIPK2 and medical uses thereof” (Odyssey Therapeutics, Inc., priority 2022, dated 2026).

Some results are limits rather than exact numbers.

For the experiment, the target named is T1, RIPK2 enzyme (Homo sapiens, UniProt O43353).
T1 construct: purchased Carna 09-128
T1 sequence (O43353 1-299 limits assumed): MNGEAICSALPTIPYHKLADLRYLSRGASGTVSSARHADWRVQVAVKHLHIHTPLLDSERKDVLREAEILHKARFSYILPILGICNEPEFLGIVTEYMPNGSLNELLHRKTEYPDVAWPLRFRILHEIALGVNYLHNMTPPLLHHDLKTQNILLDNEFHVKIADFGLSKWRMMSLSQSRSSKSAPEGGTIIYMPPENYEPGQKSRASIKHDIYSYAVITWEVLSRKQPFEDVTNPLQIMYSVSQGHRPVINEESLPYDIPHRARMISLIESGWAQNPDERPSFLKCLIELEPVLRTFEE
Put plainly: RIPK2 inhibition (ADP-Glo Kinase Assay). The class given is biochemical. The conditions noted are these: RIPK2 5 nM, ATP 150 μM, MBP substrate, read-out: RIPK2 IC50. The method in brief:
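Human RIPK2 (5 nM) preincubated with compound 30 min at room temperature in 50 mM HEPES pH 7.5, 10 mM MgCl2, 2 mM DTT, 1 mM EGTA, 0.01% Brij-35, 0.05% BSA; native swine MBP as substrate. ADP formed quantified by ADP-Glo luminescence; percent inhibition relative to DMSO and no-enzyme controls.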
As a reminder, the IC50 is the point on the concentration scale where inhibition reaches its midpoint. For the molecule `Cc1cc(CC(=O)Nc2cnn(C(C)(C)C)c2)c(F)cc1Oc1ccnc2ccc(C(=O)N3CC(C#N)C3)cc12` [Compound 371, N-(1-(tert-butyl)-1H-pyrazol-4-yl)-2-(4-((6-(3-cyano-azetidine-1-carbonyl)quinolin-4-yl)oxy)-2-fluoro-5-methyl-phenyl) acetamide], the IC50 was less than 2.5 nM.

Turning to `Cc1cc(CC(=O)Nc2cnn(C(C)(C)C)c2)c(F)cc1Oc1ccnc2ccc(C(=O)N3CC4(COC4)C3)cc12` [Compound 372, 2-(4-((6-(2-oxa-6-azaspiro[3.3]heptane-6-carbonyl)quinolin-4-yl)oxy)-2-fluoro-5-methyl-phenyl)-N-(1-(tert-butyl)-1H-pyrazol-4-yl)acetamide], the IC50 was less than 2.5 nM.

On to `Cc1cc(CC(=O)Nc2cnn(C(C)(C)C)c2)c(F)cc1Oc1ccnc2ccc(C(=O)N3CC(O)C3)cc12` [Compound 373, N-(1-(tert-butyl)-1H-pyrazol-4-yl)-2-(2-fluoro-4-((6-(3-hydroxy-azetidine-1-carbonyl)quinolin-4-yl)oxy)-5-methylphenyl) acetamide], for which the IC50 was less than 2.5 nM.

For `Cc1cc(CC(=O)Nc2cnn(C(C)(C)C)c2)c(F)cc1Oc1ccnc2ccc(C(=O)N3CC(N)C3)cc12` [Compound 374, 2-(4-((6-(3-amino-azetidine-1-carbonyl)quinolin-4-yl)oxy)-2-fluoro-5-methyl-phenyl)-N-(1-(tert-butyl)-1H-pyrazol-4-yl)acetamide], the IC50 is less than 2.5 nM.

Take `Cc1cc(CC(=O)Nc2cnn(C(C)(C)C)c2)c(F)cc1Oc1ccnc2ccc(C(=O)N3CCCC3)cc12` [Compound 377, N-(1-(tert-butyl)-1H-pyrazol-4-yl)-2-(2-fluoro-5-methyl-4-((6-(pyrrolidine-1-carbonyl)quinolin-4-yl)oxy)phenyl) acetamide]: the IC50 was less than 2.5 nM.

Consider `Cc1cc(CC(=O)Nc2cnn(C(C)(C)C)c2)c(F)cc1Oc1ccnc2ccc(C(=O)N3CCOCC3)cc12` [Compound 378, N-(1-(tert-butyl)-1H-pyrazol-4-yl)-2-(2-fluoro-5-methyl-4-((6-(morpholine-4-carbonyl)quinolin-4-yl)oxy)phenyl) acetamide], for which the 50% inhibitory concentration (IC50) is less than 2.5 nM.

Consider `Cc1cc(CC(=O)Nc2cnn(C(C)(C)C)c2)c(F)cc1Oc1ccnc2ccc(C(=O)N3CCNCC3)cc12` [Compound 379, N-(1-(tert-butyl)-1H-pyrazol-4-yl)-2-(2-fluoro-5-methyl-4-((6-(piperazine-1-carbonyl)quinolin-4-yl)oxy)phenyl) acetamide], for which the IC50 is less than 2.5 nM.

As to `Cc1cc(CC(=O)Nc2cnn(C(C)(C)C)c2)c(F)cc1Oc1ccnc2ccc(C(=O)N3CCC(O)CC3)cc12` [Compound 380, N-(1-(tert-butyl)-1H-pyrazol-4-yl)-2-(2-fluoro-4-((6-(4-hydroxy-piperidine-1-carbonyl)quinolin-4-yl)oxy)-5-methyl-phenyl) acetamide], the IC50 was less than 2.5 nM.

Consider `Cc1cc(CC(=O)Nc2cnn(C(C)(C)C)c2)c(F)cc1Oc1ccnc2ccc(P(C)(C)=O)cc12` [Compound 381, N-(1-(tert-butyl)-1H-pyrazol-4-yl)-2-(4-((6-(dimethylphosphoryl)quinolin-4-yl)oxy)-2-fluoro-5-methylphenyl) acetamide], for which the IC50 was less than 2.5 nM.

With `COc1cc2nccc(Oc3ccc(CC(=O)Nc4cnn(C(C)(C)C)c4)c(F)c3C)c2cc1P(C)(C)=O` [Compound 382, N-(1-(tert-butyl)-1H-pyrazol-4-yl)-2-(4-((6-(dimethylphosphoryl)-7-methoxyquinolin-4-yl)oxy)-2-fluoro-3-methylphenyl) acetamide], the IC50 is less than 2.5 nM.

`Cc1c(Oc2ccnc3ccc(P(C)(C)=O)cc23)ccc(CC(=O)Nc2cc(C(C)(C)C)n[nH]2)c1F` [Compound 383, N-(5-(tert-butyl)-1H-pyrazol-3-yl)-2-(4-((6-(dimethylphosphoryl)quinolin-4-yl)oxy)-2-fluoro-3-methylphenyl) acetamide]: the IC50 was less than 2.5 nM.

As to `Cc1c(Oc2ccnc3ccc(C(=O)N4C[C@@H](C)O[C@@H](C)C4)cc23)ccc(CC(=O)Nc2cnn(C(C)(C)C)c2)c1F` [Compound 384, N-(1-(tert-butyl)-1H-pyrazol-4-yl)-2-(4-((6-((2R,6S)-2,6-dimethyl-morpholine-4-carbonyl)quinolin-4-yl)oxy)-2-fluoro-3-methyl-phenyl) acetamide], the IC50 was less than 2.5 nM.

`Cc1c(Oc2ccnc3ccc(C(=O)N4C[C@@H](C)N[C@@H](C)C4)cc23)ccc(CC(=O)Nc2cnn(C(C)(C)C)c2)c1F` [Compound 385, N-(1-(tert-butyl)-1H-pyrazol-4-yl)-2-(4-((6-((3R,5S)-3,5-dimethyl-piperazine-1-carbonyl)quinolin-4-yl)oxy)-2-fluoro-3-methylphenyl) acetamide]: the IC50 was less than 2.5 nM.

In the case of `Cc1c(Oc2ccnc3ccc(S(=O)(=O)N4C[C@@H](C)O[C@@H](C)C4)cc23)ccc(CC(=O)Nc2cnn(C(C)(C)C)c2)c1F` [Compound 386, N-(1-(tert-butyl)-1H-pyrazol-4-yl)-2-(4-((6-(((2R,6S)-2,6-dimethylmorpholino)sulfonyl)quinolin-4-yl)oxy)-2-fluoro-3-methylphenyl)acetamide], the IC50 is less than 2.5 nM.

In the case of `Cc1c(Oc2ccnc3ccc(S(=O)(=O)N4C[C@@H](C)N[C@@H](C)C4)cc23)ccc(CC(=O)Nc2cnn(C(C)(C)C)c2)c1F` [Compound 387, N-(1-(tert-butyl)-1H-pyrazol-4-yl)-2-(4-((6-(((3R,5S)-3,5-dimethylpiperazin-1-yl)sulfonyl)quinolin-4-yl)oxy)-2-fluoro-3-methylphenyl)acetamide], the IC50 was less than 2.5 nM.

Consider `Cc1cc(CC(=O)Nc2cnn(C(C)(C)C)c2)c(F)cc1Oc1ccnc2ccc(C(=O)N3C[C@@H](C)N[C@@H](C)C3)cc12` [Compound 388, N-(1-(tert-butyl)-1H-pyrazol-4-yl)-2-(4-((6-((3R,5S)-3,5-dimethyl-piperazine-1-carbonyl)quinolin-4-yl)oxy)-2-fluoro-5-methyl-phenyl) acetamide], for which the IC50 was less than 2.5 nM.

For the molecule `Cc1cc(CC(=O)Nc2cnn(C(C)(C)C)c2)c(F)cc1Oc1ccnc2ccc(S(=O)(=O)N3C[C@@H](C)O[C@@H](C)C3)cc12` [Compound 389, N-(1-(tert-butyl)-1H-pyrazol-4-yl)-2-(4-((6-(((2R,6S)-2,6-dimethylmorpholino)sulfonyl)quinolin-4-yl)oxy)-2-fluoro-5-methylphenyl)acetamide], the IC50 worked out at 2.9 nM.

For the molecule `Cc1cc(CC(=O)Nc2cnn(C(C)(C)C)c2)c(F)cc1Oc1ccnc2ccc(S(=O)(=O)N3C[C@@H](C)N[C@@H](C)C3)cc12` [Compound 390, N-(1-(tert-butyl)-1H-pyrazol-4-yl)-2-(4-((6-(((3R,5S)-3,5-dimethylpiperazin-1-yl)sulfonyl)quinolin-4-yl)oxy)-2-fluoro-5-methylphenyl)acetamide], the IC50 was less than 2.5 nM.

For `Cc1cc(CC(=O)Nc2cnn(C(C)(C)C)c2)c(F)cc1Oc1ccnc2ccc(C(=O)NCC3COC3)cc12` [Compound 391, 4-(4-(2-((1-(tert-butyl)-1H-pyrazol-4-yl)amino)-2-oxoethyl)-5-fluoro-2-methyl-phenoxy)-N-(oxetan-3-ylmethyl) quinoline-6-carboxamide], the IC50 is less than 2.5 nM.
